Assay results published in patent US9162219B2, “Fenton reaction catalyst produced using reducing organic substance as raw material” (INCORPORATED ADMINISTRATIVE AGENCY, NATIONAL AGRICULTURE …, priority 2011, dated 2015).

How the values were obtained:
[1] = Ability to catalyze Fenton reaction, luminol reaction observed by eye; conditions: reaction product solution added to 100 ml luminol solution (1 g/L luminol, 4 g/L sodium hydroxide, 0.3% hydrogen peroxide)
From the text: With respect to the reaction products of the samples, which were confirmed to have iron reducing effects in Example 1, and iron, the fact that the reaction products have abilities to catalyze the Fenton reaction was examined by a luminol reaction.
It should be noted that the luminol reaction means a luminescence reaction caused by oxidizing luminol by generation of hydroxyl radicals.
Small amounts of the aqueous solutions containing the reaction products prepared in Example 1 were each added to 100 ml of a luminol solution (1 g/L luminol, 4 g/L sodium hydroxide, 0.3% hydrogen peroxide), and the presence or absence of luminescence was observed.

[2] = Luminol reaction, amount of luminescence (hydroxyl radicals generated) measured with AB-2270 Luminescencer Octa
Experimental: In the step of preparing the reaction products of the samples and iron, the ability to catalyze the Fenton reaction was examined with different mixing ratios of the samples to iron.
The above-mentioned samples were each mixed with iron (III) chloride (1 mM FeCl3) at different mixing ratios as shown in FIG. 2 to prepare reaction products in the same manner as in Example 1.
(§1) Then, for each of the aqueous solutions containing the reaction products, the amount of luminescence (amount of hydroxyl radicals generated) provided by the luminol reaction was measured using the AB-2270 Luminescencer Octa to determine the ability of the reaction products to catalyze the Fenton reaction. […]
The above-mentioned samples were added to different concentrations of iron (III) chloride (0.02, 0.1, 0.2, 1, 5, and 10 mM) at the optimum mixing ratios determined in Example 3 (ascorbic acid: 0.5 mM, squeezed grape juice: 40 mg/L in terms of total polyphenols, chaff vinegar stock solution: 50 g/L, with respect to 1 mM FeCl3) to prepare reaction products in the same manner as in Example 1.
as §1

[3] = tested on: Escherichia coli; conditions: 10 mM hydrogen peroxide, 1.0x10^6 cfu/mL, 10 minutes of treatment, TTC medium plate

SMILES	presence or absence of luminescence [1]	ability to catalyze the Fenton reaction ([2]; reaction products with iron at optimum mixing ratios and concentrations (Example 5))	optimum mixing concentration for ability to catalyze the Fenton reaction ([2]; with respect to 1 mM FeCl3)	sterilization effect (survival of Escherichia coli) [3]
O=C1O[C@H]([C@@H](O)CO)C(O)=C1O [Sample 1, ascorbic acid]	blue fluorescence was observed	very high	about 0.5 mM	–
OO [hydrogen peroxide]	–	–	–	a large amount of Escherichia coli survived
